Experimental data reported in US20220265629A1, “TREATMENT OF SYSTOLIC DYSFUNCTION AND HEART FAILURE WITH REDUCED EJECTION FRACTION WITH THE COMPOUND (R)-4-(1-((3-(DIFLUOROMETHYL)-1-METHYL-1H-PYRAZOL-4-YL)SULFONYL)-1-FLUOROETHYL)-N-(ISOXAZOL-3-YL)PIPERIDINE-1-CARBOXAMIDE” (MyoKardia, Inc., priority 2019, published 2022).
Where “and” joins values, the source holds several entries; their conditions need not be identical. Equal values may be shown once.

Assay: HFrEF study Part 2 (MAD Cohorts A-D): plasma pharmacokinetics
Assay type: in vivo, human
Conditions: for AUC_TAU: steady state
Description: This was a randomized, parallel-group, DB, placebo-controlled, adaptive design, sequential ascending (oral) multiple-close study in stable patients with heart failure. Four MAD Cohorts (A, B, C, D) were enrolled (FIG. 5B). An SRC reviewed results from each cohort and determined the close and confirmed initial sample size for the subsequent cohort. Additionally, the first 3 patients in each cohort had LVEF≥25%; the SRC reviewed preliminary safety data from these patients and decided whether to open cohort enrollment to patients with LVEF<25%.
After Screening and qualification, patients were confined to a clinical testing facility from Day 1 (Check-in) to Day 11. Each patient initially received placebo BID for 2 days (Days 1 and 2) in single-blinded manner (“run-in” during acclimatization to confinement in the Clinical Testing Unit) prior to receiving the randomized DB study drug treatment on Day 3. All patients then received either placebo or active Compound I for 7 days (Days 3 through 9), with a follow-up period with patients discharged from the unit on Day 11. A final follow-up clinic visit was conducted on Day 16. More than one patient could be closed in a cohort at the same time or during the same week depending on administrative issues, i.e., capacity and scheduling.
Patients were closed twice daily (every 12 hours). Doses could occur±2 hours from scheduled dosing times as long as closes were separated by at least 10 hours and by no more than 14 hours. The exception to the twice daily dosing was on Day 9 (last dose of randomized DB study drug treatment). On Day 9, a single morning close was administered.
During the study, multiple evaluations were performed that included: serial TTE assessments (11-14 TTEs per patient on Days 1, 2, 3, 4, 7, 9, 10 and 11); PK sampling (PK sample collected concomitantly with every post-randomization echocardiogram); ECGs (on Days 2, 3, 4, 7, 9, 10, 11 and 16); troponin (collected concomitantly with every post-randomization ECG); and safety laboratory assessments. Confined patients underwent continuous telemetry. Holter monitoring was performed in all patients at baseline (Days 1-2) and at the end of double-blind treatment (Days 7-9). Vital signs were collected daily.
Study medication consisted of Compound I 5 mg tablets, 25 mg tablets, 100 mg tablets, or matching placebo tablets. In Part 1 (SAD), Compound I or placebo was administered after an overnight fast (at least 6 hours), while in Part 2 (MAD), Compound I was administered after a 2 hour fast (Cohort A) or with food (Cohorts B, C, and D). The close was ingested with a minimum of 240 mL of water, but more water was ingested as needed. The entire close was administered over a period of up to 15 minutes. The time of close used to determine future assessments was the time the last tablet was taken. In the cohorts for Part 2 (MAD), a BID regimen was used.
In Part 2 (MAD), Cohort A patients fasted for 2 hours before and 2 hours after dosing. For example, if morning dosing occurred at 8 AM, patients could have a snack at 6 AM and a full breakfast at 10 AM. If afternoon dosing occurred at 8 PM, patients could have dinner at 6 PM and a snack at 10 PM. […] Cohort B, C, and D patients ingested food with each close.

[1] = Cohort A + C (n = 14), 75 mg BID
[2] = MAD Cohort A, 75 mg BID (4 h fasting), Mean
[3] = MAD Cohort A, 75 mg BID (4 h fasting), individual subjects
[4] = MAD Cohort B, 50 mg BID (with food), Mean
[5] = MAD Cohort B, 50 mg BID (with food), individual subjects
[6] = MAD Cohort C, 75 mg BID (with food), Mean
[7] = MAD Cohort C, 75 mg BID (with food), individual subjects

## Cn1cc(S(=O)(=O)[C@@](C)(F)C2CCN(C(=O)Nc3ccon3)CC2)c(C(F)F)n1 [Compound I, (R)-4-(1-((3-(difluoromethyl)-1-methyl-1H-pyrazol-4-yl)sulfonyl)-1-fluoroethyl)-N-(isoxazol-3-yl)piperidine-1-carboxamide]
[1]
  Post-dose maximum concentration, steady-state (Day 9) plasma: 3862 (27.7%) ng/mL
  Pre-dose concentration, steady-state (Day 9) plasma: 2930 (36.8%) ng/mL
Cohort A, 75 mg twice daily, fasted
  time to steady-state plasma concentrations: approximately 3 days
Cohort B (n = 8), 50 mg BID
  Post-dose maximum concentration, steady-state (Day 9) plasma: 2735 (17.5%) ng/mL
  Pre-dose concentration, steady-state (Day 9) plasma: 2096 (20.0%) ng/mL
Cohort B, 50 mg twice daily with food
  time to steady-state plasma concentrations: approximately 4 days
Cohort D (n = 6), 100 mg BID
  Post-dose maximum concentration, steady-state (Day 9) plasma: 5560 (22.8%) ng/mL
  Pre-dose concentration, steady-state (Day 9) plasma: 4694 (25.5%) ng/mL
[2]
  Accumulation Ratio AUC tau: 3.74
  Accumulation Ratio Cmax: 3.53
  Accumulation_Index: 3.11
  Cavg, ss: 3420 ng/mL
  Cmin, SS: 2758 ng/mL
[3]
  AUCtau, Day 1: 12360 ng·h/mL and 8025 ng·h/mL and 9501 ng·h/mL and 11570 ng·h/mL
  Accumulation Ratio AUC tau: 4.37 and 3.96 and 3.15* and 2.80 and 4.27 and 3.31
  Accumulation Ratio Cmax: 4.32 and 3.46 and 2.51* and 2.80 and 4.06 and 2.99
  Accumulation_Index: 3.82 and 3.89 and 2.79* and 2.21 and 3.00 and 2.61
  Cavg, ss: 3846 ng/mL and 4079 ng/mL and 2108* ng/mL and 2215 ng/mL and 3774 ng/mL and 3188 ng/mL
  Cmax, Day 1: 1360 ng/mL and 958 ng/mL and 981 ng/mL and 1100 ng/mL and 1250 ng/mL
  Cmax, SS: 4710 ng/mL and 2400* ng/mL and 2750 ng/mL and 4470 ng/mL and 3740 ng/mL
  Cmin, SS: 3050 ng/mL and 3510 ng/mL and 1450* ng/mL and 1740 ng/mL and 2880 ng/mL and 2610 ng/mL
  t1/2, λz: 27.41 hr and 28.02 hr and 18.78* hr and 13.84 hr and 20.55 hr and 17.21 hr
  AUC_TAU: 48950 hr*ng/mL and 25290* hr*ng/mL and 26580 hr*ng/mL and 45290 hr*ng/mL and 38250 hr*ng/mL
[4]
  Accumulation Ratio AUC tau: 4.09
  Accumulation Ratio Cmax: 3.57
  Accumulation_Index: 3.55
  Cavg, ss: 2336 ng/mL
  Cmin, SS: 1989 ng/mL
[5]
  AUCtau, Day 1: 5050 ng·h/mL and 6754 ng·h/mL and 8138 ng·h/mL and 8855 ng·h/mL and 7249 ng·h/mL and 6347 ng·h/mL and 8620 ng·h/mL
  Accumulation Ratio AUC tau: 4.00 and 6.37 and 5.22 and 3.26 and 4.07 and 3.30 and 3.63 and 2.88
  Accumulation Ratio Cmax: 3.16 and 5.33 and 4.78 and 3.08 and 4.02 and 2.64 and 3.05 and 2.51
  Accumulation_Index: 3.63 and 5.03 and 4.46 and 2.93 and 3.51 and 2.42 and 3.20 (2×) and 4.23*
  Cavg, ss: 2478 ng/mL and 2681 ng/mL and 2940 ng/mL and 2213 ng/mL and 3002 ng/mL and 1991 ng/mL and 1919 ng/mL and 2070 ng/mL and 1725* ng/mL
  Cmax, Day 1: 548 ng/mL and 674 ng/mL and 830 ng/mL and 891 ng/mL and 901 ng/mL and 696 ng/mL and 974 ng/mL
  Cmax, SS: 2920 ng/mL and 3220 ng/mL and 2560 ng/mL and 3580 ng/mL and 2380 ng/mL and 2120 ng/mL and 2440 ng/mL and 2060* ng/mL
  Cmin, SS: 1900 ng/mL and 2380 ng/mL and 2640 ng/mL and 1810 ng/mL and 2370 ng/mL and 1440 ng/mL and 1720 ng/mL and 1650 ng/mL and 1320* ng/mL
  t1/2, λz: 25.81 hr and 37.48 hr and 32.77 hr and 19.93 hr and 24.77 hr and 15.57 hr and 22.23 hr and 22.21 hr and 30.87* hr
  AUC_TAU: 32170 hr*ng/mL and 35280 hr*ng/mL and 26560 hr*ng/mL and 36030 hr*ng/mL and 23890 hr*ng/mL and 23030 hr*ng/mL and 24840 hr*ng/mL and 20700* hr*ng/mL
[6]
  Accumulation Ratio AUC tau: 3.99
  Accumulation Ratio Cmax: 3.28
  Accumulation_Index: 3.18
  Cavg, ss: 3357 ng/mL
  Cmin, SS: 2812 ng/mL
[7]
  AUCtau, Day 1: 13270 ng·h/mL and 8280 ng·h/mL and 10790 ng·h/mL and 9731 ng·h/mL and 6976 ng·h/mL and 9166 ng·h/mL and 14840 ng·h/mL and 11840 ng·h/mL
  Accumulation Ratio AUC tau: 2.44 and 1.90 and 3.48 and 4.61 and 7.62 and 3.88 and 2.59 and 4.85 and 4.53
  Accumulation Ratio Cmax: 2.17 and 1.80 and 3.20 and 4.06 and 4.80 and 2.80 and 2.38 and 4.63 and 3.68
  Accumulation_Index: 2.18 and 2.39 and 2.99 and 3.31 and 5.51 and 2.43 and 2.20 and 4.17 and 3.42
  Cavg, ss: 2695 ng/mL and 1308 ng/mL and 3126 ng/mL and 3738 ng/mL and 4432 ng/mL and 2963 ng/mL and 3206 ng/mL and 4267 ng/mL and 4474 ng/mL
